Measured values: patent EP2292587A1, “PHARMACEUTICAL COMPOSITION FOR INHIBITING THE TRANSCRIPTION FACTOR INDUCIBLE BY HYPOXIA, MODULATORS OF PATHOLOGICAL PROCESSES OF ANGIOGENESIS, ONCOGENESIS, INFLAMMATION, APOPTOSIS, AND CELLULAR THERAPY” (Fundacion De La Comunidad Valenciana Centro De …, priority 2008, dated 2009)
Read-outs that look alike come from different tables or passages of the source.

Legend:
HIF = experiment: luciferase cell assay based on the HIF response elements (HRE), HeLa 9XHRE-LUC; design: species or system human; details: Homo sapiens, HeLa
Excerpt: In order to identify direct inhibitors of the activity of HIF, a stable recombinant line was first constructed from the cervical tumor line, known in scientific literature as HeLa, which contained the deoxyribonucleic acid (DNA) sequences of the region located between positions -985 and -951 of the human vascular endothelial growth factor (hVEGF), repeated nine times (9X) and fused to the luciferase reporter gene (LUC). This plasmid, provided by Dr. Manuel Ortiz de Landazuri from the Hospital de La Princesa of Madrid, called 9XHRE-LUC, was prepared using a commercial kit (Endofree Maxi-Prep; Qiagen, Inc., Valencia, CA). The transfections were performed with FuGene6 (Roche, cat.1814443) according to the manufacturer's instructions, the µg DNA: µg FuGene ratio was 1:3. The transfected cell lines were generated by cotransfection with the vector pCMV-Hygrom which expressed a hygromycin resistance gene in mammalian cells, allowing the selection of the transfected clones. After 48 hours, the growth medium was substituted with fresh medium containing 100 µg/ml hygromycin (Sigma), the clones resistant to the antibiotic were collected and analyzed by means of RT-PCR to select the clone with the desired construct. Routinely, the HeLa 9XHRE-LUC cell line was maintained in exponential growth by means of performing subcultures in DMEM (Invitrogen-Life Technologies, Inc., Carlsbad, CA), supplemented with 10% inactivated fetal bovine serum (Whittacker Bioproducts), penicillin (50 IU/ml), streptomycin (50 µg/ml) (Invitrogen-Life Technologies, Inc., Carlsbad, CA). The cells were cultured at 37°C with a humidified atmosphere containing 5% CO2 and 300 nM Desferoxamine (DFX; Sigma St. Louis, MO).
The compounds of the Collection of the CIPF, coming from a selection of commercial collections of Sigma-Aldrich, were solubilized in DMSO at a final concentration of 5 mM and preserved at -80°C. The concentration of these compounds in the luciferase assay was 1 mcM finally in the well of the multi-well plate in which the reaction was carried out. The luciferase assays were performed in white 96-well plates (Valtecknova ref. 3917), using the kit Bright-Glo™ Luciferase Assay System (Promega, Inc., Madison, WI) following the instructions supplied by the manufacturer.
According to the methodology of the cell assay based on the HIF response elements (Example 1), the intermediate compounds of the synthesis and several synthesized analogs were tested to obtain the SAR of FM19G11.

HCT116/p53-/- cells = experiment: cell cycle distribution by flow cytometry, HCT116/p53-/-; format: cell-based, human; details: 0.5, 1, 5, 10 µM, 3 or 6 days
Excerpt: It was investigated if the activation of DDR by FM19G11 caused a delay in the cycle progress through the G1/S phases in HCT116 tumor cells, as has been described for other DNA-damaging agents (.Lim, DS, Kim, ST, Xu, B, Maser, RS, Lin, J, Petrini, JH et al., (2000) ATM phosphorylates p95/nbs1 in an S-phase checkpoint pathway. Nature 404: 613-7.; Jazayeri, A, Falck, J, Lukas, C, Bartek, J, Smith, GC, Lukas, J et al., (2006) ATM- and cell cycle-dependent regulation of ATR in response to DNA double-strand breaks. Nat Cell Biol 8: 37-45; Liu, JS, Kuo, SR, Beerman, TA and Melendy, T, (2003) Induction of DNA damage responses by adozelesin is S phase-specific and dependent on active replication forks. Mol Cancer Ther 2: 41-7; Ranjan, P and Heintz, NH, (2006) S-phase arrest by reactive nitrogen species is bypassed by okadaic acid, an inhibitor of protein phosphatases PP1/PP2A. Free Radic Biol Med 40: 247-59.). The HCT116 p53+/+ and HCT116 p53-/- cells were exposed for 3 or 6 days to the carrier (DMSO) or to FM19G11 (0.5, 1, 5, 10 µM). […] (Figure 24).
A- The HCT116/p53+/+ cells and B-HCT116/p53-/- cells were exposed to different concentrations of FM19G11 (0.5, 1, 5, 10 µM) or carrier for 3 or 6 days to analyze the distribution of cells in the different cell cycle phases by means of flow cytometry. […]

HT29 = experiment: clonicity assay, HT29; format: cell-based; details: Homo sapiens, HT-29; stimulated 72 hours, colonies counted after 10 days; read-out: survival IC50
Description: (§1) Clonicity assays were conducted to determine the toxicity of FM19G11 in p53-proficient (HT29 and HCT116/p53^+/+) and p53-deficient (HCT116/p53^-/-) tumor cells. Once the HT-29, HCT116/p53^+/+ and HCT116/p53^-/- cells were adhered to the culture plate, they were stimulated with increasing concentrations of FM19G11 (0.5, 1, 5, 10, 20, 50 µM) for 72 hours. After 10 days of stimulation, the number of colonies formed in the plates of treated and untreated cells was determined.
(§2) Results of the clonicity assays of HT29 human colon cancer cells, HCT116 cells treated with FM19G11 were monitored up to 10 after the treatment (Figure 28). The IC50 was determined by extrapolating the percentage with the concentration. FM19G11 was used at concentrations: 0.5, 1, 5, 10, 50, 100, 200 µM

HCT116/p53-/- = experiment: clonicity assay, HCT116/p53-/-; format: cell-based, human
Description: as §1, §2

[1] = test system: mouse neurospheres (neural stem cells); experiment: microsatellite genomic instability in neurospheres; format: cell-based
Description: By using specific fluorescence-labeled primers for microsatellite sequence markers, the genomic stability of neurospheres in normoxia (Nx), hypoxia (Hx) or hypoxia+FM19G11 (Hx+19G11) was analyzed. […] The treatment with FM19G11 enabled the recovery of the normoxia profiles (used as a reference or control), thus preventing the genomic instability caused by hypoxia.

For `Cc1ccc(C(=O)COC(=O)c2cccc(NC(=O)c3ccc([N+](=O)[O-])cc3[N+](=O)[O-])c2)cc1` [FM19G11, 2-oxo-2-(p-tolyl)ethyl 3-((2,4-dinitro)benzamido)benzoate], the IC50 (HIF) was 0.08 µM, the IC50 (HIF; 6 h, read-out: IC50 from dose response curve (Figure 2 B)) was 0.08 µM and the IC50 (HIF; read-out: IC50 HRE (µM)) was 0.08 µM. For the same compound, the “G1/S phase cycle arrest” value (HCT116/p53-/- cells) was “did not cause a G1/S phase cycle blocking”, the IC50 (HT29) was 1 µM and the “increase of resistance by loss of function of p53 (ratio of IC50 values in HCT116)” value (HCT116/p53-/-; HCT116/p53-/- versus HCT116/p53+/+) was 4.71 times. The IC50 (HCT116/p53-/-; Homo sapiens, HCT-116, stimulated 72 hours, colonies counted after 10 days, read-out: survival IC50) was 16.5 µM and the “genomic instability caused by hypoxia (microsatellite markers mBAT59, mBAT67)” value [1] was “prevented”.
